This is an account of results in patent US20220283175A1, “METALLOENZYMES FOR BIOMOLECULAR RECOGNITION OF N-TERMINAL MODIFIED PEPTIDES” (Encodia, Inc., priority 2020, published 2022).

Residues, ends and D or L forms follow the SMILES beside them. *: point of attachment. Benzoyl(4-SO2NH2) = NS(=O)(=O)c1ccc(C(=O)*)cc1

For one assay, the target named is wild-type hCAII protein (Homo sapiens, UniProt P00918). In words: colorimetric IC50 assay (pNPA hydrolysis) with wild-type hCAII. The assay is classed as biochemical. The settings on record: for IC50: 300 nM wild-type hCAII; for Fold Enhancement: relative to NTM M64. Here is the method: The colorimetric assay used 300 nM of wild-type carbonic anhydrase incubated in 45 μL of 50 mM MOPS (pH 7.5), 33 mM Na2SO4, and 1 mM EDTA aliquoted into a 96-well, clear, flat-bottom plate. To each column of the plate, a 1/10 dilution series from 1 mM to 0.1 nM of each NTM was added and incubated at 25° C. for 10 minutes to reach binding equilibrium. To this, 1 mM p-nitrophenylacetate (pNPA) was added to each well and screened on a plate reader at 405 nm wavelength. The initial rate of hydrolysis was observed over the first 60 seconds. The slopes versus the concentration of NTM were put into a non-linear regression equation to determine the IC50 of the NTM to the carbonic anhydrase.
The N-terminally modified peptides were then evaluated using colorimetric IC50 assay to determine relative binding affinity of NTM-AAEIR to wild-type hCAII protein based on NTM-AAEIR inhibition capacity. The slopes versus the concentration of NTM-AAEIR were put into a non-linear regression equation to determine the IC50 of the selected NTM-AAEIR peptides to the wild-type hCAII.

Assay [1] concerns the target human carbonic anhydrase II (hCAII) (Homo sapiens, UniProt P00918). In words: hCAII functional assay (hydrolysis of p-nitrophenylacetate, pNP release). The assay is classed as biochemical. The following applies: 1 μM hCAII, 500 μM pNP-OAc, 10 min at 37° C. As for the experimental part:
A functional assay for hCAII enzyme was set up. Carbonic anhydrase catalyzes the hydrolysis of 4-nitrophenyl acetate (4-NPA) to nitrophenol, which can be monitored by absorbance at 400 nm. The enzymatic carbonic anhydrase assay generally includes 0.2-1.0 μM enzyme and 10-500 μM 4-NPA in 20-200 μL in assay buffer. […] Metal chelating agents (EDTA or EGTA), salt (NaCl, sulfate), detergent (Tween or Triton), and organic additives (acetonitrile, DMSO) may be employed to facilitate enzyme stability and reagent solubility. For the assay, 1 μM human carbonic anhydrase II, 50 mM MOPS (pH 7.6), 33 mM disodium sulfate, and 1 mM EDTA. To generate NTM-modified peptides, azide-derivatized peptides (via azide-PEG-amine and carbodiimide coupling to C-terminus of peptide) were conjugated to DBCO-coupled beads. […] To evaluate P1 dependence of the binding reaction, multiple P1 residues has been tested.

The term IC50 denotes the concentration that inhibits the measured activity by half. Low values mean inhibition by little substance, high ones a need for much substance. Take `Nc1cc(S(N)(=O)=O)ccc1C(=O)O` [2-NH2, 2-Amino-4-sulfamoylbenzoic acid]: at wild-type hCAII protein (free NTM), the IC50 amounted to 1380 nM and the “Fold Enhancement” value came to 0.3.

Turning to `C[C@H](NC(=O)c1ccc(S(N)(=O)=O)cc1)C(=O)N[C@@H](Cc1ccccc1)C(=O)N[C@@H](C)C(=O)N[C@@H](C)C(=O)N[C@@H](CCC(=O)O)C(N)=O` [(SAB)AFAAE] ({Benzoyl(4-SO2NH2)}-AFAAE-NH2), in assay [1], the IC50 is 183 nM.

In assay [1], `C[C@H](NC(=O)[C@H](C)NC(=O)[C@H](Cc1ccccc1)NC(=O)c1ccc(S(N)(=O)=O)cc1)C(=O)N[C@@H](C)C(=O)N[C@@H](CCC(=O)O)C(N)=O` [(SAB)FAAAE] ({Benzoyl(4-SO2NH2)}-FAAAE-NH2) yielded an IC50 of 45 nM.

Turning to `NS(=O)(=O)c1ccc(C(=O)O)cn1` [M65, 6-Sulfamoylpyridine-3-carboxylic acid], on wild-type hCAII protein (NTM-AAEIR), the “Fold Enhancement” value was found to be 0.3. On wild-type hCAII protein (free NTM), the IC50 turned out to be 211 nM and the “Fold Enhancement” value is 2.2.

For `NS(=O)(=O)c1ccc(C(=O)O)nc1` [M66], on wild-type hCAII protein (free NTM), the IC50 was 992 nM and the “Fold Enhancement” value is recorded as 0.5.

As to `NS(=O)(=O)c1ccc(C(=O)O)c([N+](=O)[O-])c1` [M67, 2-Nitro-4-sulfamoylbenzoic acid], on wild-type hCAII protein (NTM-AAEIR), the “Fold Enhancement” value is reported as 2.0. For the same molecule, at wild-type hCAII protein (free NTM), the midpoint of inhibition, the IC50, lay at 124 nM and the “Fold Enhancement” value amounted to 3.8.

Take `COc1cc(S(N)(=O)=O)ccc1C(=O)O` [M73, 2-Methoxy-4-sulfamoylbenzoic acid]: at wild-type hCAII protein (free NTM), the IC50 amounted to 65400 nM and the “Fold Enhancement” value was 0.0.

As for `Cc1cc(S(N)(=O)=O)ccc1C(=O)O` [M74, 2-methyl-4-sulfamoylbenzoic acid], on wild-type hCAII protein (free NTM), the IC50 was 2040 nM and the “Fold Enhancement” value is listed as 0.2.

In the case of `NS(=O)(=O)c1ccc(C(=O)O)c(F)c1` [M75, 2-Fluoro-4-sulfamoylbenzoic acid], on wild-type hCAII protein (NTM-AAEIR), the “Fold Enhancement” value is 2.2. On wild-type hCAII protein (free NTM), half-maximal inhibition (IC50) was put at 224 nM and the “Fold Enhancement” value was determined as 2.1.

Turning to `NS(=O)(=O)c1ccc(C(=O)O)c(Cl)c1` [M76, 2-Chloro-4-sulfamoylbenzoic acid], the “Fold Enhancement” value on wild-type hCAII protein (NTM-AAEIR) was 1.9. Besides, on wild-type hCAII protein (free NTM), half-maximal inhibition (IC50) was put at 180 nM and the “Fold Enhancement” value turned out to be 2.6.

On to `NS(=O)(=O)c1ccc(C(=O)O)cc1F` [M88, 3-Fluoro-4-sulfamoylbenzoic acid], for which the “Fold Enhancement” value at wild-type hCAII protein (NTM-AAEIR) is reported as 1.6; on wild-type hCAII protein (free NTM), 4.3. Moreover, 110 nM corresponded to half-maximal inhibition at wild-type hCAII protein (free NTM) (IC50).
